In patent US8338472B2, “Hexahydrocyclopentyl[F]indazole carboxamides and derivatives thereof as selective glucocorticoid receptor modulators” (Merck Sharp & Dohme Corp., priority 2008, dated 2012):
Read-outs that look alike come from different tables or passages of the source.

What was measured:
[1] = molecular target: T1, glucocorticoid receptor (GR) (Homo sapiens, UniProt P04150); assay: Ligand binding assay (GR BIND), 3H-dexamethasone displacement in MDA-MB-453 cell lysate; details: GR BIND Ki
T1 sequence (P04150 1-777): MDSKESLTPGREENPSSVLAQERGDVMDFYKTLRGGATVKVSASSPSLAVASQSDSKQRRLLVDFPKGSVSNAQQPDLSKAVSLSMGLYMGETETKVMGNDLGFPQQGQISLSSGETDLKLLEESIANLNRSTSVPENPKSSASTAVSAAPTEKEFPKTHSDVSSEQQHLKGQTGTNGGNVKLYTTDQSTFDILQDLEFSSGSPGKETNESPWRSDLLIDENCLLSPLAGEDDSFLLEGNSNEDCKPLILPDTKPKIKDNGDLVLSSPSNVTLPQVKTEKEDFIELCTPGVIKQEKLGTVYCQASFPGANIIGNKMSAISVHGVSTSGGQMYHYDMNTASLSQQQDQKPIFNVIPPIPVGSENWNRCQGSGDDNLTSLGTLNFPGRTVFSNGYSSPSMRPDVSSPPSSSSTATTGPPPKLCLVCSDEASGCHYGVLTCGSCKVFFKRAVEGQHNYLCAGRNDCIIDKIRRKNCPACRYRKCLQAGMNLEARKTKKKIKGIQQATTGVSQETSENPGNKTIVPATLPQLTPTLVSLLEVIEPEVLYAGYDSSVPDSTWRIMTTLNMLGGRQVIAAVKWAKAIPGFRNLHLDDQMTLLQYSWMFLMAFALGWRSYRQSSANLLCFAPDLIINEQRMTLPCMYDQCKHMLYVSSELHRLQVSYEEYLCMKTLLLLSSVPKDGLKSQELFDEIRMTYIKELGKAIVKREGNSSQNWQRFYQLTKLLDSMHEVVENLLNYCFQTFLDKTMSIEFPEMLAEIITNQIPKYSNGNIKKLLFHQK

human GR = molecular target: T2, human GR (Homo sapiens, UniProt P04150); assay: Transrepression Assay (GITAR), TNFα-β-lactamase reporter gene in U937 cells; format: cell-based; details: for GITAR Greater than by GRAMMER % SEP: GITAR Emax minus GRAMMER Emax; for EC50: inflection point, U937 cells, read-out: Transrepression U937 Cells GITAR IP
T2 construct: U937 cells contain an endogenous glucocorticoid receptor (GR); endogenous in cells; host or cells: U937 cells stably transfected with the TNF-alpha promoter/beta-lactamase reporter
T2 sequence (P04150 1-777): T1 sequence (P04150 1-777)
Description: Transrepression Assay (GITAR)
This assay assesses the ability of test compounds to control transcription from the TNFα-β-lactamase reporter gene in U937 cells, a human myelomonocytic leukemia cell line that naturally expresses the human GR. The assay measures compound dependent-repression of the TNFa promoter linked to a reporter gene.
The human U937 cells that had been stablely transfected with the TNF-α promoter driving β-lactamase are used for this assay. U937 cells contain an endogenous glucocorticoid receptor (GR). Cells are maintained in RPMI 1640 Growth medium (Gibco Cat#11875-093) containing 25 mM HEPES, 10% FBS, 2 mM L-Glutamine, 1 mM Sodium pyruvate, 25 μg/ml Gentamicin (Gibco Cat#15710-064), 1:1000 2-Mercaptoethanol (Gibco Cat#21985-023) and 0.8 mg/ml G418 (Gibco Cat#10131-027). The density of the cells in the flask needs to be about 1×10^6−3×10^6/ml at the time of harvest. Usually, the cells are split to 1.2˜1.4×10^5/ml (1:10) 3 days prior to the assay. 50,000 cells/well are plated in 96 well black-walled plates the day of assay. Test compounds are added 10 pt/well, and cells are incubated at 37° C. for 30-45 min. For assaying compounds, first dilute 1:10 in DMSO to make 1 mM, then further dilute 1:100 in medium to make 10× stock prior to adding to the cells. Add 50 ng/ml PMA (Sigma, cat# P8139) 10 μL/well to a final concentration 5 ng/ml, and 1 μg/ml LPS (Sigma, cat# L4130) 10 μL/well to a final concentration 100 ng/ml. Incubate cells at 37° C. overnight for ˜18 hr. PMA is stored frozen as 100 μg/ml stock in DMSO. Dilute 1:10 in DMSO for a working stock of 10 μg/ml and store at −20C. For assaying, dilute the […] working stock 1:200 in medium to make a 10× solution (50 ng/ml). Store frozen LPS at 1 mg/ml in PBS, dilute 1:1000 in medium to make 10× (1 μg/ml) for the assay. Add 6× loading buffer (CCF2−AM) 20 μL/well, and incubate at room temperature for 70-90 min. […] The activity repressed by 100 nM dexamethasone alone is set as 100% activity.

Glucocorticoid Receptor = molecular target: T3, Glucocorticoid Receptor (Homo sapiens, UniProt P04150); assay: Trans-Activation Modulation of Glucocorticoid Receptor (GRAMMER), MMTV-LUC reporter gene in A549 cells; format: cell-based; details: Table 1; for Emax: A549, A549 cells, Emax relative to 300 nM dexamethasone, read-out: Transactivation A549 Cells GRAMMER Emax; for EC50: inflection point, A549 cells, read-out: Transactivation A549 Cells GRAMMER IP
T3 construct: These cells express large amount of the GR and are very responsive to GC treatment; endogenous in cells; host or cells: A549 cells transiently transfected with the MMTV-LUC reporter
T3 sequence (P04150 1-777): T1 sequence (P04150 1-777)
Description: Trans-Activation Modulation of Glucocorticoid Receptor (GRAMMER)
This assay assesses the ability of test compounds to control transcription from the MMTV-LUC reporter gene in lung adenocarcinoma A549 cells or MDA-MB-453 cells, a human breast cancer cell line that naturally expresses the human GR. The assay measures induction of a modified MMTV LTR/promoter linked to the LUC reporter gene.
The routine transient assay consists of plating 7,000-25,000 cells/well of a white, clear-bottom 96-well plate. Alternatively, 384-well plates can be used at a cell concentration of 10,000/well. The media that the cells are plated in is “exponential growth medium” which consists of phenol red-free RPMI1640 containing 10% FBS, 4 mM L-glutamine, 20 mM HEPES, 10 ug/mL human insulin, and 20 ug/mL gentamicin. Incubator conditions are 37° C. and 5% CO2. The transfection is done in batch mode. The cells are trypsinized and counted to the right cell number in the proper amount of fresh media. It is then gently mixed with the FuGene6/DNA mix and plated onto the 96 or 384-well plate, all the wells receive 100 uL or 40 uL, respectively, of medium+lipid/DNA complex then incubated 37° C. overnight. The transfection cocktail consists of serum-free OptiMEM, FuGene6 reagent and DNA. The manufacturer's (Roche Biochemical) protocol for cocktail setup is as follows: The lipid to DNA ratio is approximately 2.5:1 and the incubation time is 20 min at room temperature. Sixteen to 24 hours after transfection, the cells are treated with dexamethasone to a final concentration of 10 nM as well as the compound of interest, such that final DMSO (vehicle) concentration is equal to or less than 1%. Each plate also contains samples that are treated with 10 nM dexamethasone alone, which is used as the 100% activity control. The cells are exposed to the compounds for 24 hours. After 24 hours, the cells are lysed by a Promega cell culture lysis buffer for approximately 30 min and then the luciferase activity in the extracts is assayed in the 96-well format luminometer. In 384-well format, Steady-Glo (Promega) or Steady-Lite (PerkinElmer) can be used by adding an equal volume of reagent to the media present in each well. Activity induced by 10 nM dexamethasone alone is set at 100% activity. Antagonist activity is calculated by determining the decrease in dexamethasone-induced activity in response to compound treatment relative to samples that were treated with dexamethasone alone. […] This transactivation assay can be performed in an agonist and antagonist mode to identify these different activities.
Activity of test compounds is calculated as the Emax relative to the activity obtained with 300 nM dexamethasone. Activity of test compounds is calculated as the Emax relative to the activity obtained with 300 nM DEX. […] The action of compounds is also tested in an antagonist mode (Anti-GRAMMER) in which the cells are treated with medium containing an agonist such as 10 nM DEX and the ability to agents to inhibit the activation by an agonist is measured.

[2] = U-937, U937 cells, activity repressed by 100 nM dexamethasone = 100%, Table 1, read-out: Transrepression U937 Cells GITAR Emax
[3] = U-937, text statement, 100 nM dexamethasone = 100%, read-out: maximal activity in the transrepression assay (GITAR)

| SMILES | Ki ([1]; compounds in the art (WO03/086294)) [nM] | Ki ([1]; Table 1) [nM] | GITAR Greater than by GRAMMER % SEP (human GR; Table 1) [%] | Emax (human GR; [2]) [%] | Emax (human GR; [3]) [%] | EC50 (human GR; Table 1) [nM] | Emax (Glucocorticoid Receptor) [%] | EC50 (Glucocorticoid Receptor) [nM] |
| --- | --- | --- | --- | --- | --- | --- | --- | --- |
| C[C@]12Cc3cnn(-c4ccc(F)cc4)c3C=C1CC[C@@H]2C(=O)Nc1ccccc1 (single isomer, unassigned) [reference compound] | 2420 |  |  |  |  |  |  |  |
| C[C@]12Cc3cnn(-c4ccc(F)cc4)c3C=C1CC[C@@H]2C(=O)NC(Cc1ccccc1)c1ccccc1 (stereo partly drawn) [Compound 2, (4αR,5S)-N-(1,2-diphenylethyl)-1-(4-fluorophenyl)-4α-methyl-1,4,4α,5,6,7-hexahydrocyclopenta[f]indazole-5-carboxamide] |  | 12.7 | 24.5 | 27.6 | > 5 | 3540 | 3.1 | 1120 |
| C[C@]12Cc3cnn(-c4ccc(F)cc4)c3C=C1CC[C@@H]2C(=O)NCc1ccc(Cl)cc1Cl [Compound 3, (4αR,5S)-N-(2,4-dichlorobenzyl)-1-(4-fluorophenyl)-4α-methyl-1,4,4α,5,6,7-hexahydrocyclopenta[f]indazole-5-carboxamide] |  | 16.2 | 16.1 | 17 | > 5 | 5200 | 0.9 | 5590 |
| C[C@]12Cc3cnn(-c4ccc(F)cc4)c3C=C1CC[C@@H]2C(=O)Nc1ccccc1 [Compound 6, (4αR,5S)-1-(4-fluorophenyl)-4α-methyl-N-phenyl-1,4,4α,5,6,7-hexahydrocyclopenta[f]indazole-5-carboxamide] |  | 19.4 | 11.5 | 12.8 | > 5 | 0.9 | 1.3 | 133 |
| C[C@]12Cc3cnn(-c4ccc(F)cc4)c3C=C1CC[C@@H]2C(=O)N(Cc1ccc(Cl)cc1Cl)CC1CC1 [Compound 7, (4αR,5S)-N-(cyclopropylmethyl)-N-(2,4-dichlorobenzyl)-1-(4-fluorophenyl)-4α-methyl-1,4,4α,5,6,7-hexahydrocyclopenta[f]indazole-5-carboxamide] |  | 1.3 | 4.8 | 18.2 | > 5 | 586 | 13.4 | 1400 |
| CC(C)CCN(CCC(C)C)C(=O)[C@H]1CCC2=Cc3c(cnn3-c3ccc(F)cc3)C[C@@]21C [Compound 8, (4αR,5S)-1-(4-fluorophenyl)-4α-methyl-N,N-bis(3-methylbutyl)-1,4,4α,5,6,7-hexahydrocyclopenta[f]indazole-5-carboxamide] |  | 1 | 12.4 | 18 | > 5 | 812 | 5.6 | 728 |
| C[C@]12Cc3cnn(-c4ccc(F)cc4)c3C=C1CC[C@@H]2C(=O)N1CCCCC1CCc1ccccc1 (stereo partly drawn) [Compound 18, (4αR,5S)-1-(4-fluorophenyl)-4α-methyl-5-{[2-(2-phenylethyl)piperidin-1-yl]carbonyl}-1,4,4α,5,6,7-hexahydrocyclopenta[f]indazole] |  |  | 6.3 | 10.1 | > 5 |  | 3.8 |  |

The remaining lines, values ahead:

| Ki ([1]; compounds in the art (WO03/086294)) [nM] | Ki ([1]; Table 1) [nM] | GITAR Greater than by GRAMMER % SEP (human GR; Table 1) [%] | Emax (human GR; [2]) [%] | Emax (human GR; [3]) [%] | EC50 (human GR; Table 1) [nM] | Emax (Glucocorticoid Receptor) [%] | EC50 (Glucocorticoid Receptor) [nM] | SMILES |
| --- | --- | --- | --- | --- | --- | --- | --- | --- |
|  | 1.7 | 22.2 | 67.5 | > 5 | 328 | 45.3 | 177 | CCCN(CCC)C(=O)[C@H]1CCC2=Cc3c(cnn3-c3ccc(F)cc3)C[C@@]21C [Compound 1, (4αR,5S)-1-(4-Fluorophenyl)-4α-methyl-N,N-dipropyl-1,4,4α,5,6,7-hexahydrocyclopenta[f]indazole-5-carboxamide] |
|  | 2.5 | 2.3 | 21.5 | > 5 | 1000 | 19.2 | 909 | CCCN(CC)C(=O)[C@H]1CCC2=Cc3c(cnn3-c3ccc(F)cc3)C[C@@]21C [Compound 4, (4αR,5S)-N-ethyl-1-(4-fluorophenyl)-4α-methyl-N-propyl-1,4,4α,5,6,7-hexahydrocyclopenta[f]indazole-5-carboxamide] |
|  | 0.9 | 24.2 | 59.6 | > 5 | 674 | 35.4 | 358 | CCCN(CC1CC1)C(=O)[C@H]1CCC2=Cc3c(cnn3-c3ccc(F)cc3)C[C@@]21C [Compound 5, (4αR,5S)-N-(cyclopropylmethyl)-1-(4-fluorophenyl)-4α-methyl-N-propyl-1,4,4α,5,6,7-hexahydrocyclopenta[f]indazole-5-carboxamide] |
